Where only a bound is given, the exact number is not on record here.

What is called IC50 is the point on the concentration scale where inhibition reaches its midpoint.

The target in the first assay is T1, von Hippel-Lindau disease tumor suppressor (Homo sapiens, UniProt P40337). Briefly: Fluorescence Polarization (FP) VHL Binding Assay.
T1 sequence (P40337 whole entry): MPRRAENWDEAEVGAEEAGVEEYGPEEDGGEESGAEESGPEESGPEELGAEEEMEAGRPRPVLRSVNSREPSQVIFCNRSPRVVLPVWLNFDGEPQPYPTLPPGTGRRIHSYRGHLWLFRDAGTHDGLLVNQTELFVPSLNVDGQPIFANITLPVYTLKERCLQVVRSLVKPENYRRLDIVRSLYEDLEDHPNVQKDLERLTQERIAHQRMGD
Experimental: The binding of test compounds to the VHL Elongin B/C complex was measured using a fluorescence polarization tracer competition assay. […] A VHL fluorescence polarization probe consisted of a VHL ligand coupled to carboxytetramethylrhodamine (TAMRA); (2S,4R)-N-(2-(2-(3',6'-bis(dimethylamino)-3-oxo-3H-spiro[isobenzofuran-l,9'-xanthene]-5-carboxamido)ethoxy)-4-(4-methylthiazol-5-yl)benzyl)-4-hydroxy-l-((R)-3-methyl-2-(3-methylisoxazol-5-yl)butanoyl)pyrrolidine-2-carboxamide. […] DMSO was dispensed into wells designated for “VHL control” (without compound) wells. The “Assay Buffer” consisted of 50 mM Tris pH 8.0, 120 mM NaCl, 0.005% Nonidet P-40, and 1% DMSO (v/v). […] Assay Buffer was also dispensed into “no VHL control” wells using the same method. […] “Post-assay” fluorescence polarization measurements were made as described for the “pre-assay” fluorescence measurement. Fluorescence polarization was calculated for each sample; taking into account the “pre-assay” fluorescence measurements and subtracting the fluorescence signal of the compound/VHL only (“pre-assay”) measurements from the “post-assay” fluorescence polarization measurements, for each plane of polarization. The data were analyzed using Genedata Screener software and normalized to the “no VHL control” and “VHL control” (without compound). IC50 values were calculated using a four parameter curve fit (Robust method).
In the case of `CC(C)(C)[C@@H](C(=O)N1C[C@H](O)CC1C(=O)N[C@H](Cc1ccc(-c2ccccc2)cc1)C(N)=O)n1cc(C2CC2)nn1` (stereo not given in full) [WO2022103411, Example S3], the IC50 was 150 nM.
Regarding `CC(=O)NCCOCc1cn([C@H](C(=O)N2C[C@H](O)CC2C(=O)N[C@H](Cc2ccc(-c3ccccc3)cc2)C(N)=O)C(C)(C)C)nn1` (stereo not given in full) [WO2022103411, Example S14], the IC50 amounted to 80 nM.

The target of another assay is T1, von Hippel-Lindau disease tumor suppressor. Briefly: VHL HEK-293 BRET Assay. For orientation: Bioluminescence resonance energy transfer reports proximity on the nanometre scale.
Experimental: The VHL NanoBRET Target Engagement Assay analyzes the apparent affinity of test compounds for VHL in cells by competitive displacement of a VHL NanoBRET tracer reversibly bound to a NanoLuc VHL fusion protein stably expressed in the cells. […] 50 nL of control compound (lOmM; parental unlabeled VHL antagonist; see structure below) and 50 nL of DMSO (negative control) were dispensed into the appropriate control wells. DMSO was backfilled to a final volume of 50 nL as required. […] Max Signal control wells consisted of DMSO only treated wells. Minimum Signal control wells contained of 10 uM parental unlabeled VHL antagonist (control compound - see structure below). […] Background Signal control wells were prepared without tracer for background correction steps. […] The raw BRET ratio values were calculated by dividing the acceptor emission value (610 nm) by the donor emission value (460nm) for each sample. To correct for background, the BRET ratio in the absence of tracer (average of no-tracer control samples) was subtracted from the BRET ratio of each sample. Raw BRET units were converted to milliBRET units (mBU) by multiplying each raw BRET value by 1,000. The normalized NanoBRET signal was calculated relative to the Max Signal control wells (DMSO treated control wells) and the Minimum Signal control wells. Percentage inhibition was calculated relative to the Minimum Signal control and Maximum Signal control wells. IC50 values were derived by four parameter curve fitting using the Robust method.
With `Cc1ncsc1-c1ccc(CNC(=O)C2C[C@H](O)CN2C(=O)[C@@H](n2cc(C3(c4cn([C@H](C(=O)N5C[C@H](O)C[C@H]5C(=O)NCc5ccc(-c6scnc6C)cc5)C(C)(C)C)nn4)CC3)nn2)C(C)(C)C)cc1` (stereo not given in full) [WO2022103411, Compound 31], the IC50 worked out at 310 nM.
`COC(=O)c1nnn([C@H](C(=O)N2C[C@H](O)C[C@H]2C(=O)N[C@H](Cc2ccc(-c3ccccc3)cc2)C(N)=O)C(C)C)c1C` [WO2022103411, Compound 34] had an IC50 of 6250 nM.
The same measure, in the same setting: to `COC(=O)c1nnn([C@@H](C(=O)N2C[C@H](O)C[C@H]2C(=O)N[C@H](Cc2ccc(-c3ccccc3)cc2)C(N)=O)C(C)C)c1C` [WO2022103411, Compound 35] belongs 1620 nM; to `CC(C)[C@@H](C(=O)N1C[C@H](O)C[C@H]1C(=O)N[C@H](Cc1ccc(-c2ccccc2)cc1)C(N)=O)n1nnc2ccccc21` [WO2022103411, Compound 38], 300 nM; to `Cc1ncsc1-c1ccc2c(c1)CCCC[C@@H]2NC(=O)[C@@H]1C[C@@H](O)CN1C(=O)[C@@H](n1cc(C2CC2)nn1)C(C)(C)C` [WO2022103411, Compound 52], less than 5 nM.
Still for that read-out and setting: the result for `Cc1ncsc1-c1ccc2c(c1)CCCC[C@H]2NC(=O)[C@@H]1C[C@@H](O)CN1C(=O)[C@@H](n1cc(C2CC2)nn1)C(C)(C)C` [WO2022103411, Compound 53] reads 200 nM.
Take `CC(C)(C)[C@@H](C(=O)N1C[C@H](O)CC1C(=O)N[C@H](Cc1ccc(-c2ccccc2)cc1)C(N)=O)n1cc(C2CC2)nn1` (stereo not given in full) [WO2022103411, Example S3]: inhibition was half-maximal at 150 nM (IC50).
On the same count and under the same terms, the result for `NC(=O)[C@@H](Cc1ccc(-c2ccccc2)cc1)NC(=O)C1C[C@@H](O)CN1C(=O)[C@H](C1CCC1)n1cc(C2CC2)nn1` (stereo not given in full) [WO2022103411, Example S4] reads 190 nM; that for `CCC(C)[C@@H](C(=O)N1C[C@H](O)CC1C(=O)N[C@H](Cc1ccc(-c2ccccc2)cc1)C(N)=O)n1cc(C2CC2)nn1` (stereo not given in full) [WO2022103411, Example S5], 130 nM; that for `CCC(C)(C)[C@@H](C(=O)N1C[C@H](O)CC1C(=O)N[C@H](Cc1ccc(-c2ccccc2)cc1)C(N)=O)n1cc(C2CC2)nn1` (stereo not given in full) [WO2022103411, Example S6], 100 nM.
The compound `C=CC(C)(C)[C@@H](C(=O)N1C[C@H](O)CC1C(=O)N[C@H](Cc1ccc(-c2ccccc2)cc1)C(N)=O)n1cc(C2CC2)nn1` (stereo not given in full) [WO2022103411, Example S7] registered an IC50 of 110 nM.
On to `CC(=O)NCCOCc1cn([C@H](C(=O)N2C[C@H](O)CC2C(=O)N[C@H](Cc2ccc(-c3ccccc3)cc2)C(N)=O)C(C)(C)C)nn1` (stereo not given in full) [WO2022103411, Example S14], for which half-maximal inhibition (IC50) was put at 20700 nM.
As for `Cc1ncsc1-c1ccc([C@H](C)NC(=O)C2C[C@@H](O)CN2C(=O)[C@H](C2C3CC4CC(C3)CC2C4)n2cc(C3CC3)nn2)cc1` (stereo not given in full) [WO2022103411, Example S20], the IC50 is less than 5 nM.
For the compound `CCC(C)(C)[C@@H](C(=O)N1C[C@H](O)C[C@H]1C(=O)N[C@@H](C)c1ccc(-c2scnc2C)cc1)n1cc(C2CC2)nn1` [WO2022103411, Example S21], the IC50 was less than 5 nM.
On to `Cc1ncsc1-c1ccc(C(C)NC(=O)C2C[C@@H](O)CN2C(=O)[C@H](C2C3CC4CC(C3)CC2C4)n2cc(C3CC3)nn2)c(Cl)c1` (stereo not given in full) [WO2022103411, Example S23], for which the midpoint of inhibition, the IC50, lay at 20 nM.
The same measure, in the same setting: to `Cc1ncsc1-c1ccc(CNC(=O)[C@@H]2C[C@@H](O)CN2C(=O)[C@@H](n2cc(C3CC3)nn2)C(C)(C)C)cc1` [WO2022103411, Example S24] belongs 10 nM; to `Cc1ncsc1-c1ccc(CNC(=O)[C@@H]2C[C@@H](O)CN2C(=O)[C@H](C2CCCCC2)n2cc(C3CC3)nn2)cc1` [WO2022103411, Example S25], less than 5 nM.
Still for that read-out and setting: to `Cc1ncsc1-c1ccc(CNC(=O)[C@@H]2C[C@@H](O)CN2C(=O)[C@@H](n2cc(Cc3ccccc3)nn2)C(C)(C)C)cc1` [WO2022103411, Example S27] belongs 20 nM.

The record behind these values is BindingDB's records for patent WO2022103411 (Genentech, 2022).
